# Literature values, collected in US6340480B1, “Natural composition for the treatment of circulatory conditions” (priority 1998, dated 2002).
# Tested on: Activated Macrophages
# Details: for killing certain tumor cells; literature study
smiles,measurement,value
CC(C)=CCC[C@](C)(O[C@@H]1O[C@H](CO)[C@@H](O)[C@H](O)[C@H]1O)[C@H]1CC[C@]2(C)[C@@H]1[C@H](O)C[C@@H]1[C@@]3(C)CC[C@H](O)C(C)(C)[C@@H]3[C@@H](O[C@@H]3O[C@H](CO)[C@@H](O)[C@H](O)[C@H]3O)C[C@]12C [RG1],production of NO,enhances the production of NO
